These results are taken from PMC5218480 (PLoS ONE, 2017).

The assay concerns MV-4-11 cells. As to the kind of experiment: Gene expression microarray analysis (Affymetrix PrimeView) and GSEA. It counts as cell-based, human. Further details: RFU PODN (11730768_x_at) / Fold change /veh PODN (11730768_x_at) / RFU LINC00158 (11744669_a_at) / Fold change /veh LINC00158 (11744669_a_at) / RFU DUSP10 (11751237_a_at) / Fold change /veh DUSP10 (11751237_a_at) / RFU ID3 (11757404_x_at) / Fold change /veh ID3 (11757404_x_at) / RFU PLEKHG5 (11737974_s_at) / Fold change /veh PLEKHG5 (11737974_s_at) / RFU LRRC4B (11730491_at) / Fold change /veh LRRC4B (11730491_at) / RFU GIMAP4 (11747438_a_at) / Fold change /veh GIMAP4 (11747438_a_at) / RFU KRT8 (11758183_x_at) / Fold change /veh KRT8 (11758183_x_at) / RFU CNN1 (11734310_a_at) / Fold change /veh CNN1 (11734310_a_at) / RFU VPS37D (11726825_at) / Fold change /veh VPS37D (11726825_at) / RFU C10orf10 (11716522_x_at) / Fold change /veh C10orf10 (11716522_x_at) / RFU KIR2DL2 /// KIR2DL4 /// KIR2DL5A /// KIR2DL5B /// KIR2DS1 /// KIR2DS2 /// KIR2DS3 /// KIR2DS4 /// KIR3DL3 /// KIR3DL3 /// KIR3DS1 (11738374_at) / Fold change /veh KIR2DL2 /// KIR2DL4 /// KIR2DL5A /// KIR2DL5B /// KIR2DS1 /// KIR2DS2 /// KIR2DS3 /// KIR2DS4 /// KIR3DL3 /// KIR3DL3 /// KIR3DS1 (11738374_at) / RFU C1QL1 (11718748_at) / Fold change /veh C1QL1 (11718748_at) / RFU TMPRSS4 (11747572_a_at) / Fold change /veh TMPRSS4 (11747572_a_at) / RFU HAMP (11756126_x_at) / Fold change /veh HAMP (11756126_x_at) / RFU RNFT2 (11725882_a_at) / Fold change /veh RNFT2 (11725882_a_at) / RFU NR4A2 (11747474_a_at) / Fold change /veh NR4A2 (11747474_a_at) / RFU ABCC12 (11746883_a_at) / Fold change /veh ABCC12 (11746883_a_at) / RFU TMEM136 (11760407_x_at) / Fold change /veh TMEM136 (11760407_x_at) / RFU CLDN22 /// WWC2 (11732394_at) / Fold change /veh CLDN22 /// WWC2 (11732394_at) / RFU HLA-DPB1 (11760878_x_at) / Fold change /veh HLA-DPB1 (11760878_x_at) / RFU SPINT1 (11716480_a_at) / Fold change /veh SPINT1 (11716480_a_at) / RFU GAP43 (11754022_s_at) / Fold change /veh GAP43 (11754022_s_at) / RFU A4GNT (11735810_at) / Fold change /veh A4GNT (11735810_at) / RFU PRB3 (11715151_x_at) / Fold change /veh PRB3 (11715151_x_at) / RFU TUBB4B (11761932_at) / Fold change /veh TUBB4B (11761932_at) / RFU CAPN14 (11732068_a_at) / Fold change /veh CAPN14 (11732068_a_at) / RFU TMCC2 (11721928_a_at) / Fold change /veh TMCC2 (11721928_a_at) / RFU IRGQ (11745062_a_at) / Fold change /veh IRGQ (11745062_a_at) / RFU FAM174B (11720279_a_at) / Fold change /veh FAM174B (11720279_a_at) / RFU TMPRSS4 (11748680_a_at) / Fold change /veh TMPRSS4 (11748680_a_at) / RFU FAM212B (11763350_a_at) / Fold change /veh FAM212B (11763350_a_at) / RFU PLEKHG5 (11743358_a_at) / Fold change /veh PLEKHG5 (11743358_a_at) / RFU ZSCAN30 (11745921_a_at) / Fold change /veh ZSCAN30 (11745921_a_at) / RFU CMKLR1 (11741424_a_at) / Fold change /veh CMKLR1 (11741424_a_at) / RFU LOC101060620 /// MAPK8IP1 (11723275_at) / Fold change /veh LOC101060620 /// MAPK8IP1 (11723275_at) / RFU SPTSSB (11747773_x_at) / Fold change /veh SPTSSB (11747773_x_at) / RFU PRSS12 (11739890_at) / Fold change /veh PRSS12 (11739890_at) / RFU BIN1 (11741810_x_at) / Fold change /veh BIN1 (11741810_x_at) / RFU WNT11 (11732464_a_at) / Fold change /veh WNT11 (11732464_a_at) / RFU C10orf10 (11716521_a_at) / Fold change /veh C10orf10 (11716521_a_at) / RFU C5orf56 (11738089_at) / Fold change /veh C5orf56 (11738089_at) / RFU CYB561 (11721691_x_at) / Fold change /veh CYB561 (11721691_x_at) / RFU ANKRD19P (11752326_a_at) / Fold change /veh ANKRD19P (11752326_a_at) / RFU OR2T12 /// OR2T33 /// OR2T8 (11738714_s_at) / Fold change /veh OR2T12 /// OR2T33 /// OR2T8 (11738714_s_at) / RFU VCAN (11748164_a_at) / Fold change /veh VCAN (11748164_a_at) / RFU JSRP1 (11732532_at) / Fold change /veh JSRP1 (11732532_at) / RFU KRTAP10-11 (11738290_x_at) / Fold change /veh KRTAP10-11 (11738290_x_at) / RFU MYO3A (11730013_a_at) / Fold change /veh MYO3A (11730013_a_at) / RFU EBF3 (11725865_a_at) / Fold change /veh EBF3 (11725865_a_at) / RFU CAMK2N1 (11719241_x_at) / Fold change /veh CAMK2N1 (11719241_x_at) / RFU C5orf56 (11738088_a_at) / Fold change /veh C5orf56 (11738088_a_at) / RFU OLFML3 (11715873_a_at) / Fold change /veh OLFML3 (11715873_a_at) / RFU LOC100653217 /// NTM (11731650_a_at) / Fold change /veh LOC100653217 /// NTM (11731650_a_at) / RFU MAPK11 (11762145_a_at) / Fold change /veh MAPK11 (11762145_a_at) / RFU FIZ1 (11724087_x_at) / Fold change /veh FIZ1 (11724087_x_at) / RFU OASL (11726364_x_at) / Fold change /veh OASL (11726364_x_at) / RFU SOX15 (11748057_x_at) / Fold change /veh SOX15 (11748057_x_at) / RFU CD79A (11719716_a_at) / Fold change /veh CD79A (11719716_a_at) / RFU HIST1H1D (11736915_at) / Fold change /veh HIST1H1D (11736915_at) / RFU CASKIN2 (11723855_a_at) / Fold change /veh CASKIN2 (11723855_a_at) / RFU LOC730098 (11760151_x_at) / Fold change /veh LOC730098 (11760151_x_at) / RFU OR4N2 (11742367_at) / Fold change /veh OR4N2 (11742367_at) / RFU PRRT2 (11749266_a_at) / Fold change /veh PRRT2 (11749266_a_at) / RFU SNX32 (11753110_a_at) / Fold change /veh SNX32 (11753110_a_at) / RFU CDHR5 (11726645_a_at) / Fold change /veh CDHR5 (11726645_a_at) / RFU RCAN1 (11760418_a_at) / Fold change /veh RCAN1 (11760418_a_at) / RFU FAM167A (11723789_a_at) / Fold change /veh FAM167A (11723789_a_at) / RFU FAM26E (11764081_at) / Fold change /veh FAM26E (11764081_at) / RFU ISYNA1 (11749810_s_at) / Fold change /veh ISYNA1 (11749810_s_at) / RFU ACY1 (11761880_at) / Fold change /veh ACY1 (11761880_at) / RFU 11764098_at / Fold change /veh 11764098_at / RFU SAMD14 (11745864_x_at) / Fold change /veh SAMD14 (11745864_x_at) / RFU NPB (11741838_a_at) / Fold change /veh NPB (11741838_a_at) / RFU TMPRSS6 (11731388_a_at) / Fold change /veh TMPRSS6 (11731388_a_at) / RFU KRTAP10-2 (11738614_at) / Fold change /veh KRTAP10-2 (11738614_at) / RFU ARHGAP8 /// PRR5-ARHGAP8 (11727945_x_at) / Fold change /veh ARHGAP8 /// PRR5-ARHGAP8 (11727945_x_at) / RFU KRTAP5-7 /// NADSYN1 (11734609_at) / Fold change /veh KRTAP5-7 /// NADSYN1 (11734609_at) / RFU RASL12 (11751679_a_at) / Fold change /veh RASL12 (11751679_a_at) / RFU CDKN2B (11736163_a_at) / Fold change /veh CDKN2B (11736163_a_at) / RFU PRF1 (11729649_at) / Fold change /veh PRF1 (11729649_at) / RFU, ZNF638 /// ZNF638-IT1 / Fold change vs veh, ZNF638 /// ZNF638-IT1 / RFU, PANK3 / Fold change vs veh, PANK3 / RFU, SH3YL1 / Fold change vs veh, SH3YL1 / RFU, ZEB2 / Fold change vs veh, ZEB2 / RFU, NRIP1 / Fold change vs veh, NRIP1 / RFU, PTTG1IP / Fold change vs veh, PTTG1IP / RFU, CAPN2 / Fold change vs veh, CAPN2 / RFU, MED14 / Fold change vs veh, MED14 / RFU, SNORA58 / Fold change vs veh, SNORA58 / RFU, C1orf63 / Fold change vs veh, C1orf63 / RFU, LRRFIP1 / Fold change vs veh, LRRFIP1 / RFU, NDUFAF7 / Fold change vs veh, NDUFAF7 / RFU, SLC12A2 / Fold change vs veh, SLC12A2 / RFU, IBTK / Fold change vs veh, IBTK / RFU, ESF1 / Fold change vs veh, ESF1 / Fold change vs veh, TMEM50B / RFU, TAOK1 / Fold change vs veh, TAOK1 / RFU, ACBD3 / Fold change vs veh, ACBD3 / RFU, TMA16 / Fold change vs veh, TMA16 / RFU, RWDD3 / Fold change vs veh, RWDD3 / RFU, BCAT1 / Fold change vs veh, BCAT1 / RFU, EDEM3 / Fold change vs veh, EDEM3 / RFU, TMEM33 / Fold change vs veh, TMEM33 / RFU, WDR75 / Fold change vs veh, WDR75 / RFU, AHCTF1 / Fold change vs veh, AHCTF1 / RFU, TFRC / Fold change vs veh, TFRC / RFU, ZDHHC17 / Fold change vs veh, ZDHHC17 / RFU, NOM1 / Fold change vs veh, NOM1 / RFU, ARL8B / Fold change vs veh, ARL8B / RFU, ZBTB11 / Fold change vs veh, ZBTB11 / RFU, TAMM41 / Fold change vs veh, TAMM41 / RFU, KIAA1704 /// LOC100996395 / Fold change vs veh, KIAA1704 /// LOC100996395 / RFU, ING1 / Fold change vs veh, ING1 / RFU, TRMT61B / Fold change vs veh, TRMT61B / RFU, FUBP3 / Fold change vs veh, FUBP3 / RFU, TP53 / Fold change vs veh, TP53 / RFU, TNKS2 / Fold change vs veh, TNKS2 / RFU, ZFP14 / Fold change vs veh, ZFP14 / RFU, ACTR2 / Fold change vs veh, ACTR2 / RFU, PPP3R1 / Fold change vs veh, PPP3R1 / RFU, PIK3R1 / Fold change vs veh, PIK3R1 / RFU, HNRNPA1 / Fold change vs veh, HNRNPA1 / RFU, RNF170 / Fold change vs veh, RNF170 / RFU, ZNF28 / Fold change vs veh, ZNF28 / RFU, RNGTT / Fold change vs veh, RNGTT / RFU, OGT / Fold change vs veh, OGT / RFU, BRD1 / Fold change vs veh, BRD1 / RFU, MARS / Fold change vs veh, MARS / RFU, ZNF655 / Fold change vs veh, ZNF655 / RFU, FAHD1 / Fold change vs veh, FAHD1 / RFU, BDP1 / Fold change vs veh, BDP1 / RFU, LRRCC1 / Fold change vs veh, LRRCC1 / RFU, ARID1A / Fold change vs veh, ARID1A / RFU, ZNF146 / Fold change vs veh, ZNF146 / RFU, ZNF330 / Fold change vs veh, ZNF330 / RFU, GPN3 / Fold change vs veh, GPN3 / RFU, C9orf123 / Fold change vs veh, C9orf123 / RFU, N4BP2L2 / Fold change vs veh, N4BP2L2 / RFU, ARFIP1 / Fold change vs veh, ARFIP1 / RFU, FAM179B / Fold change vs veh, FAM179B / RFU, BCL10 / Fold change vs veh, BCL10 / RFU, UHRF1BP1L / Fold change vs veh, UHRF1BP1L / RFU, BET1 / Fold change vs veh, BET1 / RFU, CNOT2 / Fold change vs veh, CNOT2 / RFU, ZNF268 / Fold change vs veh, ZNF268 / Fold change vs veh, ZNF507 / RFU, DGCR2 / Fold change vs veh, DGCR2 / RFU, WDSUB1 / Fold change vs veh, WDSUB1 / Fold change vs veh, HSP90B1 /// MIR3652 / RFU, ADSS / Fold change vs veh, ADSS / RFU, GK / Fold change vs veh, GK / RFU, ZNF148 / Fold change vs veh, ZNF148 / RFU, TAF9 / Fold change vs veh, TAF9 / RFU, SLC1A5 / Fold change vs veh, SLC1A5 / RFU, SLMO2 / Fold change vs veh, SLMO2 / RFU, ABCC4 / Fold change vs veh, ABCC4 / RFU, LOC101060439 /// RAP1B / Fold change vs veh, LOC101060439 /// RAP1B / RFU, RFX7 / Fold change vs veh, RFX7 / RFU, GTPBP10 / Fold change vs veh, GTPBP10 / RFU, CNEP1R1 / Fold change vs veh, CNEP1R1 / RFU, BIVM-ERCC5 /// ERCC5 / Fold change vs veh, BIVM-ERCC5 /// ERCC5 / RFU, ILF3 / Fold change vs veh, ILF3 / RFU 11762660_at / Fold change /veh 11762660_at / RFU VCAN (11757783_s_at) / Fold change /veh VCAN (11757783_s_at) / RFU DDX43 (11728927_at) / Fold change /veh DDX43 (11728927_at) / RFU KRT8 (11758188_x_at) / Fold change /veh KRT8 (11758188_x_at) / RFU NKD1 (11759106_at) / Fold change /veh NKD1 (11759106_at) / RFU SRD5A1 (11742802_a_at) / Fold change /veh SRD5A1 (11742802_a_at) / RFU TPSAB1 /// TPSB2 (11721975_s_at) / Fold change /veh TPSAB1 /// TPSB2 (11721975_s_at) / RFU GSTM3 (11746129_a_at) / Fold change /veh GSTM3 (11746129_a_at) / RFU IL23R (11737362_x_at) / Fold change /veh IL23R (11737362_x_at) / RFU TMEM51 (11727254_a_at) / Fold change /veh TMEM51 (11727254_a_at) / RFU PIWIL2 (11732686_x_at) / Fold change /veh PIWIL2 (11732686_x_at) / RFU ORM1 (11744905_x_at) / Fold change /veh ORM1 (11744905_x_at) / RFU CCDC152 (11743942_at) / Fold change /veh CCDC152 (11743942_at) / RFU ECM1 (11717891_a_at) / Fold change /veh ECM1 (11717891_a_at) / RFU IL23R (11748794_a_at) / Fold change /veh IL23R (11748794_a_at) / RFU TNFAIP8L3 (11732012_x_at) / Fold change /veh TNFAIP8L3 (11732012_x_at) / RFU MBOAT4 (11741988_at) / Fold change /veh MBOAT4 (11741988_at) / RFU 11764193_at / Fold change /veh 11764193_at / RFU TMEM53 (11763286_at) / Fold change /veh TMEM53 (11763286_at) / RFU MAGEB2 (11727129_at) / Fold change /veh MAGEB2 (11727129_at) / RFU TMEM200A (11744735_a_at) / Fold change /veh TMEM200A (11744735_a_at) / RFU CCDC152 (11751479_a_at) / Fold change /veh CCDC152 (11751479_a_at) / RFU FAM211A (11726209_a_at) / Fold change /veh FAM211A (11726209_a_at) / RFU RGS16 (11746705_a_at) / Fold change /veh RGS16 (11746705_a_at) / RFU VCAN (11755009_s_at) / Fold change /veh VCAN (11755009_s_at) / RFU RHOB (11743442_s_at) / Fold change /veh RHOB (11743442_s_at) / RFU RGS16 (11720943_a_at) / Fold change /veh RGS16 (11720943_a_at) / RFU RGS16 (11720944_at) / Fold change /veh RGS16 (11720944_at) / RFU, VPS4B / Fold change vs veh, VPS4B / RFU, CREB1 / Fold change vs veh, CREB1 / RFU, DNAJC13 / Fold change vs veh, DNAJC13 / RFU, GNAQ / Fold change vs veh, GNAQ / RFU, CDK5R1 / Fold change vs veh, CDK5R1 / RFU, ZRANB3 / Fold change vs veh, ZRANB3 / RFU, CUL4A / Fold change vs veh, CUL4A / RFU, CCNY / Fold change vs veh, CCNY / RFU, UFL1 / Fold change vs veh, UFL1 / RFU, COG3 / Fold change vs veh, COG3 / RFU, DIAPH2 / Fold change vs veh, DIAPH2 / RFU, SKA2 / Fold change vs veh, SKA2 / RFU, AFF3 / Fold change vs veh, AFF3 / RFU, LMF1 / Fold change vs veh, LMF1 / RFU, IPO11 / Fold change vs veh, IPO11 / RFU, DFFB / Fold change vs veh, DFFB / RFU, FOXP1 / Fold change vs veh, FOXP1 / RFU, CARD8 / Fold change vs veh, CARD8 / RFU, STRN3 / Fold change vs veh, STRN3 / RFU, ADK / Fold change vs veh, ADK / RFU, RASSF2 / Fold change vs veh, RASSF2 / RFU, WIPF1 / Fold change vs veh, WIPF1 / RFU, LARP1B / Fold change vs veh, LARP1B / RFU, RASA1 / Fold change vs veh, RASA1 / RFU, RB1 / Fold change vs veh, RB1 / RFU, PPFIA1 / Fold change vs veh, PPFIA1 / RFU, MAT2A / Fold change vs veh, MAT2A / RFU, CCT5 / Fold change vs veh, CCT5 / RFU, WDR92 / Fold change vs veh, WDR92 / RFU, CUX1 / Fold change vs veh, CUX1 / RFU, TTC7A / Fold change vs veh, TTC7A / RFU, TMEM135 / Fold change vs veh, TMEM135 / RFU, DEPTOR / Fold change vs veh, DEPTOR / RFU, CPM / Fold change vs veh, CPM / RFU, DNAJB6 / Fold change vs veh, DNAJB6 / RFU, CACNA2D3 / Fold change vs veh, CACNA2D3 / RFU, DTX4 / Fold change vs veh, DTX4 / RFU, TFCP2 / Fold change vs veh, TFCP2 / RFU, GMCL1 /// GMCL1P1 / Fold change vs veh, GMCL1 /// GMCL1P1 / RFU, AEBP2 / Fold change vs veh, AEBP2 / RFU, SNHG1 /// SNORD22 /// SNORD25 /// SNORD26 /// SNORD27 /// SNORD28 /// SNORD29 /// SNORD31 / Fold change vs veh, SNHG1 /// SNORD22 /// SNORD25 /// SNORD26 /// SNORD27 /// SNORD28 /// SNORD29 /// SNORD31 / Fold change (Aza/veh), C12orf56 (ProbeSet 11735607_a_at) / Fold change (ACY-1035/veh), C12orf56 (ProbeSet 11735607_a_at) / Fold change (Aza/veh), FGFR1OP (ProbeSet 11751329_s_at) / Fold change (ACY-1035/veh), FGFR1OP (ProbeSet 11751329_s_at) / Fold change (Aza/veh), VPS36 (ProbeSet 11739960_a_at) / Fold change (ACY-1035/veh), VPS36 (ProbeSet 11739960_a_at) / RFU SYPL1 (11715823_x_at) / Fold change /veh SYPL1 (11715823_x_at) / RFU IGFBP7 (11715501_s_at) / Fold change /veh IGFBP7 (11715501_s_at) / RFU REEP3 (11722064_at) / Fold change /veh REEP3 (11722064_at) / RFU IGLL1 (11728026_x_at) / Fold change /veh IGLL1 (11728026_x_at): dose or concentration left out as unconfirmed. The settings on record: ProbeSet 11717876_a_at; LIST D.

Take `Nc1ccc(-c2cccs2)cc1NC(=O)c1ccc2c(c1)cc(C1CC1)n2CCN1CCOCC1` [ACY-1035]: the “Fold change vs veh, PPFIA1” value turned out to be 0.87.
